For orientation: IC50 means the midpoint of a concentration-inhibition curve. The low end stands for greater potency in that assay, the high end for weaker potency in that assay.

This passage reports IC50 results from paper PMC3200564 (European journal of nuclear medicine and molecular imaging, 2011).

One experiment deals with TEM8 (293-TEM8 cells) (Homo sapiens, UniProt Q9H6X2). The experiment in a line: biochemical. The experiment is classed as binding.
Experiment [1] deals with T1, extracellular vWA domain of TEM8 (Homo sapiens, UniProt Q9H6X2).
T1 sequence (Q9H6X2 44-215 limits assumed): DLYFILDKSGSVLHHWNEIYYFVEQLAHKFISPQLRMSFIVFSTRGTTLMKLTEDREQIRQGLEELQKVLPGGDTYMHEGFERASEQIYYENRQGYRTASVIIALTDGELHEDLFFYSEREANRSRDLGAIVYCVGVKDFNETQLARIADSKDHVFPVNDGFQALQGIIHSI
The experiment in a line: biochemical. The class given is binding.

Chain of TEM8 (293-TEM8 cells) (Q9H6X2 33-564): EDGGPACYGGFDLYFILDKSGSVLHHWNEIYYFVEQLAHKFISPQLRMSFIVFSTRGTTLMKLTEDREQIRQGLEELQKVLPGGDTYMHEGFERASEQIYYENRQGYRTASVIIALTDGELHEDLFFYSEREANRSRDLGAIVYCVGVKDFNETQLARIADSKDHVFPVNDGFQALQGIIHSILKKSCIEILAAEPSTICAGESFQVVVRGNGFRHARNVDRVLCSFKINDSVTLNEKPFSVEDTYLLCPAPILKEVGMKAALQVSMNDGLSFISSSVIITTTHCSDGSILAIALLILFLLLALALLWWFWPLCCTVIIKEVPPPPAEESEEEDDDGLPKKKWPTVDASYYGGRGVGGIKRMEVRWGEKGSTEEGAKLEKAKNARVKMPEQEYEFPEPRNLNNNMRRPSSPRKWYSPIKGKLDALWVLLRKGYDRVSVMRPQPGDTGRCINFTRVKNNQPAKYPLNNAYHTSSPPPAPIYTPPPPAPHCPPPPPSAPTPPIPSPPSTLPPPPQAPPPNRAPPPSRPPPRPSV

On to `CC[C@H](C)[C@H](NC(=O)[C@H](Cc1ccc(O)cc1)NC(=O)[C@H](CC(C)C)NC(=O)[C@@H]1CCCN1C(=O)[C@H](CC(C)C)NC(=O)[C@H](CCCNC(=N)N)NC(=O)[C@H](CC(=O)O)NC(=O)[C@H](CC(N)=O)NC(=O)[C@H](Cc1ccc(O)cc1)NC(=O)[C@@H](N)CCCCN)C(=O)N[C@@H](CO)C(=O)N[C@@H](CC(N)=O)C(=O)N1CCC[C@H]1C(=O)O` [QQM, KYNDRLPLYISNP], for which the results for the IC50 (against TEM8 (293-TEM8 cells); in experiment [1]) were 33 nM and 304 nM, respectively.
